# Experimental data as given in ChEMBL document CHEMBL1137647, “vanD and vanG-like gene clusters in a Ruminococcus species isolated from human bowel flora” (2007).
# Test system: Ruminococcus sp.
# Assay: Antimicrobial activity against Ruminococcus sp. CCRI-16110 containing vanD-like gene by agar dilution method
# Assay type: functional
row,SMILES,MIC [µg/mL]
1,Cc1ncc([N+](=O)[O-])n1CCO [METRONIDAZOLE],< 0.125
2,CN[C@H](CC(C)C)C(=O)N[C@H]1C(=O)N[C@@H](CC(N)=O)C(=O)N[C@H]2C(=O)N[C@H]3C(=O)N[C@H](C(=O)N[C@H](C(=O)O)c4cc(O)cc(O)c4-c4cc3ccc4O)[C@H](O)c3ccc(c(Cl)c3)Oc3cc2cc(c3O[C@@H]2O[C@H](CO)[C@@H](O)[C@H](O)[C@H]2O[C@H]2C[C@](C)(N)[C@H](O)[C@H](C)O2)Oc2ccc(cc2Cl)[C@H]1O [VANCOMYCIN],> 256
